# Test results reported in patent US11680056B2, “MK2 inhibitors and uses thereof” (Xinthera, Inc., priority 2021, dated 2023).
# Where two headings read alike, the source gives them in different places.
# How the values were obtained:
# p38a/MK2 = p38a/MK2 (Homo sapiens (Human), UniProt P49137+Q16539); test: p38a/MK2 biochemical assay: activation of MK2 by p38, FITC-HSP27 peptide phosphorylation (IMAP FP); conditions: 10-point 1:3 dilution, 60 pM active p38a, 1 nM inactive MK2, 10 μM ATP, 2 h incubation
# Protocol: (§1) Expression vectors of the recombinant MK2 and PRAK kinases were constructed by cloning of the codon optimized gene sequences of MK2 (Uniprot ID P49137, amino acid fragment F46-H400), or PRAK (Uniprot ID Q81W41, amino acid fragment M1-Q471) into pGEX-4T1 (GE) for over expression of these kinases with N-terminal GST-tag. Protein expression was carried out in E. coli BL21 by growing the hosts in TB medium, induction of protein expression with 0.5 mM IPTG at approximate 0.8 OD600, and incubation of the cultures at 18° C. for 14-20 hours afterwards. The harvested cells were resuspended in […] of Lysis buffer (50 mM Tris-HCl, pH 8.0, 500 mM NaCl, 1 mM DTT, 5% glycerol, and 1 mM PMSF) per gram of wet cell mass and homogenized at 4° C. in a microfluidizer (ATS, Suzhou, China) at 14,000 psi pressure, 3 passes. The cell lysates were clarified by centrifugation and the supernatants containing the GST-fusion proteins were purified by affinity chromatography using GSH-Sepharose (GE) gravity flow columns pre-equilibrated in Buffer A (50 mM Tris-HCl, pH 8.0, 500 mM NaCl, 1 mM DTT, and 5% glycerol). After thorough washing of the columns with Buffer A, the bound GST-proteins were eluted by Buffer B (50 mM Tris, pH 8.0, 500 mM NaCl, 1 mM DTT, 5% glycerol, 10 mM glutathione), followed by size-exclusion purification on Superdex 200 column equilibrated in Buffer A. The purified proteins were concentrated to approximately 1 mg/ml and stored at −80° C.
# This study evaluates the inhibitory potency of invention compound on p38/MK2 pathway vs p38/PRAK pathway. More specially the compound concentration (IC50) was determined that inhibited half of the maximal activation of MK2 or PRAK by p38. MK2 activation study was set up without or with a serial of 10-point 1:[…], and PRAK activation study was set up without or with a serial of 10-point 1:3 dilution of invention compound at top dose of 300 μM. The MK2 and PRAK activity were determined by the phosphorylation level of HSP27 peptide conjugated with FITC.
# (§2) After 2 h incubation of the reaction mixture with various concentration of invention compound (200 nL), 60 μL 1×IMAP solution Mixture (Molecular Devices, Cat R8127) was added to the reaction mixture and incubated for another half hour. The signal was then read by Synergy™ Neo2 Multi-Mode Microplate Reader with filter setting (Ex/Em=485 nm/FITC FP-P pol 528 nm & FITC FP-S pol 528 nm)
# (§3) The signal was then normalized to vehicle control and fitted in Xfit to generate IC50. The selectivity of MK2 over PRAK was calculated by the formular Selectivity=IC50 of PRAK/IC50 of MK2.
# p38a/PRAK = p38a/PRAK (Homo sapiens (Human), UniProt Q16539); test: p38a/PRAK biochemical assay: activation of PRAK by p38, FITC-HSP27 peptide phosphorylation (IMAP FP); conditions: 10-point 1:3 dilution, top dose 300 μM; 60 pM active p38a, 1 nM inactive PRAK, 10 μM ATP, 2 h incubation; read-out: p38a/PRAK Enzyme pIC50 (converted)
# Protocol: as §1
# This study evaluates the inhibitory potency of invention compound on p38/MK2 pathway vs p38/PRAK pathway. More specially the compound concentration (IC50) was determined that inhibited half of the maximal activation of MK2 or PRAK by p38. MK2 activation study was set up without or with a serial of 10-point 1:3 dilution of invention compound at top dose of […], and PRAK activation study was set up without or with a serial of 10-point 1:3 dilution of invention compound at top dose of 300 μM. The MK2 and PRAK activity were determined by the phosphorylation level of HSP27 peptide conjugated with FITC.
# as §2, §3
# [1] = top dose 10 μM, read-out: p38a/MK2 (10 μM) Enzyme pIC50 (converted)
# [2] = top dose 1 μM, read-out: p38a/MK2 (1 μM) Enzyme pIC50 (converted)
# Sequence of p38a/PRAK (Q16539 whole entry): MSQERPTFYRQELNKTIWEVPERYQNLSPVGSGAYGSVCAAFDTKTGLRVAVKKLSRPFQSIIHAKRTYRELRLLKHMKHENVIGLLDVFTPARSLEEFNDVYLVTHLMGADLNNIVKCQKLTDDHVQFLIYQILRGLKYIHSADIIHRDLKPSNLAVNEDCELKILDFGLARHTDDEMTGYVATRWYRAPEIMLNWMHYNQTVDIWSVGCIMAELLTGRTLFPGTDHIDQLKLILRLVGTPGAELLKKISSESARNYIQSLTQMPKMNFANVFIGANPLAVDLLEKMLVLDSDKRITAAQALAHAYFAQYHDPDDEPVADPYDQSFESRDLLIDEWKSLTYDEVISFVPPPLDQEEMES
# Sequence of p38a/MK2 (P49137 46-400): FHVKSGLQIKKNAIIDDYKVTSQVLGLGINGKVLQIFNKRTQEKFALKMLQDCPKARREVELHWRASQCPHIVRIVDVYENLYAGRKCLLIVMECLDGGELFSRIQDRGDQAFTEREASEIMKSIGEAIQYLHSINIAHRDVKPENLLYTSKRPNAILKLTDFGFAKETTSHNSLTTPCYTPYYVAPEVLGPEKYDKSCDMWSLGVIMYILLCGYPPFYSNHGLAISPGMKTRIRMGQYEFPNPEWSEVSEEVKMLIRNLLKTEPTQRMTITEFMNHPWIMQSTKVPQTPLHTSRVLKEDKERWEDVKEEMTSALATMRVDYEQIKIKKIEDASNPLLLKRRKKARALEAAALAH
# Sequence of p38a/MK2 (Q16539 whole entry, the tested form may be a part): as the sequence (Q16539 whole entry) above
SMILES,IC50 (p38a/MK2; [1]) [µM],IC50 (p38a/PRAK) [µM],IC50 (p38a/MK2; [2]) [µM],p38a/MK2 (10 μM) Enzyme pIC50 (p38a/MK2; top dose 10 μM)
"Cc1cnc(-c2ccnc(C3(CO)CC3)n2)cc1-n1c(C)cc(OCc2ncc(F)cc2F)c(Cl)c1=O (single isomer, unassigned) [Example 21A, rel-3-chloro-4-((3,5-difluoropyridin-2-yl)methoxy)-2′-(2-(1-(hydroxymethyl)cyclopropyl)pyrimidin-4-yl)-5′,6-dimethyl-2H-[1,4′-bipyridin]-2-one]",> 10,> 316,,
"Cc1cnc(-c2cc(C3CC3)nc(C(C)(C)O)n2)cc1-n1c(C)cc(OCc2ncc(F)cc2F)c(Cl)c1=O (atropisomer, axis not shown) [Example 10, 3-chloro-2′-[6-cyclopropyl-2-(2-hydroxypropan-2-yl)pyrimidin-4-yl]-4-[(3,5-difluoropyridin-2-yl)methoxy]-5′,6-dimethyl-[1,4′-bipyridin]-2-one]",,5.01,,5.8
"Cc1cnc(-c2ccnc(C3(O)CCOCC3)n2)cc1-n1c(C)cc(OCc2ncc(F)cc2F)c(Cl)c1=O (single isomer, unassigned) [Example 39A, rel-3-chloro-4-((3,5-difluoropyridin-2-yl)methoxy)-2′-(2-(4-hydroxytetrahydro-2H-pyran-4-yl)pyrimidin-4-yl)-5′,6-dimethyl-2H-[1,4′-bipyridin]-2-one]",,12.6,0.01,
"Cc1cnc(-c2cccc([C@H](O)CO)n2)cc1-n1c(C)cc(OCc2ncc(F)cc2F)c(Cl)c1=O (atropisomer, axis not shown) [Example 16, 3-chloro-4-[(3,5-difluoropyridin-2-yl)methoxy]-2′-[6-(1,2-dihydroxyethyl)pyridin-2-yl]-5′,6-dimethyl-[1,4′-bipyridin]-2-one]",,15.8,,7.4
"Cc1cnc(-c2ccnc(N(C)CCO)n2)cc1-n1c(C)cc(OCc2ncc(F)cc2F)c(Cl)c1=O (single isomer, unassigned) [Example 43A, rel-3-chloro-4-[(3,5-difluoropyridin-2-yl)methoxy]-2′-{2-[(2-hydroxyethyl)(methyl)amino]pyrimidin-4-yl}-5′,6-dimethyl-[1,4′-bipyridin]-2-one]",,2.51,0.0126,
"[2H]C([2H])(Oc1cc(C)n(-c2c(C)cnc(-c3ccnc(C(O)(C([2H])([2H])[2H])C([2H])([2H])[2H])n3)c2F)c(=O)c1Cl)c1ncc(F)cc1F (single isomer, unassigned) [Example 67B, rel-3-chloro-4-((3,5-difluoropyridin-2-yl)methoxy-d2)-3′-fluoro-2′-(2-(2-hydroxypropan-2-yl-1,1,1,3,3,3-d6)pyrimidin-4-yl)-5′,6-dimethyl-2H-[1,4′-bipyridin]-2-one]",,31.6,0.0794,
"Cc1cnc(-c2cccc([C@@H](O)CO)n2)cc1-n1c(C)cc(OCc2ncc(F)cc2F)c(Cl)c1=O (single isomer, unassigned) [Example 34D, rel-3-chloro-4-[(3,5-difluoropyridin-2-yl)methoxy]-2′-[6-(1,2-dihydroxyethyl)pyridin-2-yl]-5′,6-dimethyl-[1,4′-bipyridin]-2-one]",3.16,> 316,,
"Cc1cnc(-c2ccnc(C3CC(O)C3)n2)cc1-n1c(C)cc(OCc2ncc(F)cc2F)c(Cl)c1=O (single isomer, unassigned) [Example 26A, rel-3-chloro-4-((3,5-difluoropyridin-2-yl)methoxy)-2′-(2-(3-hydroxycyclobutyl)pyrimidin-4-yl)-5′,6-dimethyl-2H-[1,4′-bipyridin]-2-one]",,2,0.0126,
"Cc1cnnc(COc2cc(C)n(-c3cc(-c4ccnc(C(C)(C)O)n4)ncc3C)c(=O)c2Cl)c1 (single isomer, unassigned) [Example 28B, rel-3-chloro-2′-[2-(2-hydroxypropan-2-yl)pyrimidin-4-yl]-5′,6-dimethyl-4-[(5-methylpyridazin-3-yl)methoxy]-[1,4′-bipyridin]-2-one]",,> 316,,

# More lines, main results first:
IC50 (p38a/MK2; [1]) [µM],IC50 (p38a/PRAK) [µM],IC50 (p38a/MK2; [2]) [µM],SMILES,p38a/MK2 (10 μM) Enzyme pIC50 (p38a/MK2; top dose 10 μM)
,> 316,> 1,"Cc1cnc(-n2ccc(C(C)(C)O)n2)c(F)c1-n1c(C)cc(OCc2ncc(F)cc2F)c(Cl)c1=O (single isomer, unassigned) [Example 54A, rel-3-chloro-4-((3,5-difluoropyridin-2-yl)methoxy)-3′-fluoro-2′-(3-(2-hydroxypropan-2-yl)-1H-pyrazol-1-yl)-5′,6-dimethyl-2H-[1,4′-bipyridin]-2-one]",
,1,0.00126,"[2H]C([2H])(Oc1cc(C)n(-c2c(C)cnc(-n3ccc(C(C)(C)O)n3)c2F)c(=O)c1Cl)c1ncc(F)cc1F [Example 58A, rel-3-chloro-4-[(3,5-difluoropyridin-2-yl)(2H2)methoxy]-3′-fluoro-2′-[3-(2-hydroxypropan-2-yl)pyrazol-1-yl]-5′,6-dimethyl-[1,4′-bipyridin]-2-one]",
,25.1,0.0158,"Cc1c(-n2c(C)cc(OCc3ncc(F)cc3F)c(Cl)c2=O)ccnc1-n1ccc(C(C)(C)O)n1 (single isomer, unassigned) [Example 52B, rel-3-chloro-4-((3,5-difluoropyridin-2-yl)methoxy)-2′-(3-(2-hydroxypropan-2-yl)-1H-pyrazol-1-yl)-3′,6-dimethyl-2H-[1,4′-bipyridin]-2-one]",
,5.01,,"Cc1cnc(-n2nc(C(C)(C)O)cc2C2CC2)cc1-n1c(C)cc(OCc2ncc(F)cc2F)c(Cl)c1=O (single isomer, unassigned) [Example 20A, rel-3-chloro-2′-[5-cyclopropyl-3-(2-hydroxypropan-2-yl)pyrazol-1-yl]-4-[(3,5-difluoropyridin-2-yl)methoxy]-5′,6-dimethyl-[1,4′-bipyridin]-2-one]",
,> 316,,"Cc1cnc(-n2nc(C(C)(C)O)cc2C2CC2)cc1-n1c(C)cc(OCc2ncc(F)cc2F)c(Cl)c1=O (single isomer, unassigned) [Example 20B, rel-3-chloro-2′-[5-cyclopropyl-3-(2-hydroxypropan-2-yl)pyrazol-1-yl]-4-[(3,5-difluoropyridin-2-yl)methoxy]-5′,6-dimethyl-[1,4′-bipyridin]-2-one]",
,5.01,,"Cc1cnc(-n2nc(C(C)(C)O)cc2C)cc1-n1c(C)cc(OCc2ncc(F)cc2F)c(Cl)c1=O (single isomer, unassigned) [Example 19A, rel-3-chloro-4-((3,5-difluoropyridin-2-yl)methoxy)-2′-(3-(2-hydroxypropan-2-yl)-5-methyl-1H-pyrazol-1-yl)-5′,6-dimethyl-2H-[1,4′-bipyridin]-2-one]",
,25.1,,"Cc1nn(-c2ccnc(C(C)(C)O)n2)cc1-n1c(C)cc(OCc2ncc(F)cc2F)c(Cl)c1=O [Example 30, 3-chloro-4-[(3,5-difluoropyridin-2-yl)methoxy]-1-{1-[2-(2-hydroxypropan-2-yl)pyrimidin-4-yl]-3-methylpyrazol-4-yl}-6-methylpyridin-2-one]",
,> 316,,"Cc1cnc(-n2nc(C(C)(C)O)cc2C)cc1-n1c(C)cc(OCc2ncc(F)cc2F)c(Cl)c1=O (single isomer, unassigned) [Example 19B, rel-3-chloro-4-((3,5-difluoropyridin-2-yl)methoxy)-2′-(3-(2-hydroxypropan-2-yl)-5-methyl-1H-pyrazol-1-yl)-5′,6-dimethyl-2H-[1,4′-bipyridin]-2-one]",
